Tests used:
Factor Xa = test: Generation of Factor Xa by monocytes (THP-1 cells); type: cell-based; details: 0.5 mM; for reduction of Factor Xa production: 20 min
Description: Factor Xa generation was determined by a modification of the method of Miletich et al. (1978), J. Biol. Chem. 253: 6908-6916. THP-1 cells (ATCC; 3×10^7 /ml) resuspended in RPMI 1640 (Bio Whittaker, Walkersville, Md.) were incubated with 100 μM ADP (Sigma), 2.5 mM CaCl2, 1 or 5 μg/ml Factor X (Hematologic Technologies Inc.) and 0.5 mM peptides at room temperature. After 20 minutes, 100 μl of the reaction mixture was transferred to 37° C. and supplemented with 100 μl of bovine factor VII- and Factor X-deficient plasma (Sigma). Coagulation was initiated by adding 100 μl of 25 mM CaCl2 and the clotting time was determined. Factor Xa procoagulant activity (ng/ml) was calculated by means of a standard curve constructed by serial concentrations of Factor Xa (Hematologic Technologies Inc.) from 50 to 250 ng/ml.

C3bi = test: Inhibition of binding of 12.1F9 to E-C3bi by peptides; parameters: species or system human; details: for block of binding of 12.1F9 to C3bi: e-c3bi on antibody-coated wells
Description: The antibody 12.1F9 maps to the region 1279-2011 of FHA. When the derived amino acid sequence of this region was compared to that of C3, a region of 11 amino acids with similar sequence was found between FHA residues 1408-1418 and C3 residues 1187-1197 (Table 14). […] However, the FHA-20-mer and the homologous C3-derived peptide blocked binding by up to 60%.

neutrophils = test: Transendothelial migration of neutrophils; type: cell-based, human; details: peptides 0.01 mM
Description: Transendothelial migration of neutrophils was studied based on a method described by Muller et al. (1992), J. Exp. Med. 176: 819-828. Briefly, human neutrophils suspended in ice-cold Hanks balanced salt solution (HBSS) containing Ca^++ and Mg^++ (Sigma) were fluoresceinated by adding 3.3 μl/ml 5-(and 6-)carboxyfluorescein diacetate, succinimidyl ester (CFSE, Molecular Probes Inc., Oreg.). After incubation for 30 mins. on ice, neutrophils were washed twice in cold HBSS with Ca^++ and Mg^++ and resuspended in cold Medium 199 (M199, Sigma) to a final concentration of 10^6 /ml. Human umbilical vein endothelial cells were subcultured at confluence into 96-well tissue culture plates (Becton Dickinson Labware, Lincoln Park, N.J.) that were coated with hydrated collagen gel (Vitrogen; Collagen Corporation, Palo Alto, Calif.) and fibronectin. Endothelial cells were stimulated with 10 ng/ml TNF-alpha for 4 hours and washed three times with warm M199. Neutrophils (10^6 /ml) were preincubated with 0.01 mM of peptides or with 1 μM of native FHA in M199 for 5 mins. on ice before they were added in 100 μl aliquots to the endothelial cells. For positive control, neutrophils were pre-incubated with 25 μg/ml anti-CD18 mAb IB4. For negative control, neutrophils were treated with 25 μg/ml mAb W6/32 against HLA class I antigen (Dako, Carpinteria, Calif.). The cells were incubated for 1 hour at 37° C., 5% CO2. To terminate transmigration, the supernatant fluid was aspirated and the wells were filled with warm 1 mM EGTA (Sigma) in HBSS without Ca and Mg. The plates were covered with plate sealers (Dynatech, Alexandria, Va.) and centrifuged in an inverted position at 250 g for 3 mins. at room temperature. To remove residual non-transmigrated neutrophils from the endothelial cells, monolayers were washed twice with 200 μl of warm Hanks solution without Ca and Mg. Fluorescence was quantitated using a fluorescence counter (Millipore Cytofluor™ 2300). The percentage of transmigrated neutrophils was determined by comparing the amount of fluorescence of test wells with that measured in collagen- and fibronectin-coated wells without endothelial cells. […] Percent inhibition of transendothelial migration of neutrophils was calculated by comparing the number of transmigrated cells in wells containing neutrophils treated with peptide to neutrophils treated with M199 alone and arbitrarily set at 100% transendothelial migration (TEM).
(§1) The procedures for determining the neutrophil adherence to cultured endothelial cells and the transendothelial migration of neutrophils were identical with those of Example 9. Control values were the same as those shown in Example 9.

blood brain barrier = test: Rabbit meningitis model: CSF protein and lactate (blood brain barrier permeability); type: in vivo; details: 10 μM peptides, 0.1 μM FHA
Description: (§2) The rabbit model was performed according to an established protocol. Specific pathogen free, New Zealand white rabbits (2 kg; Hare Marland, Nutley, N.J.) were anesthetized with valium (2.5 mg/kg, subcutaneously, Hoffman-LaRoche, Nutley, N.J.), ketamine (35 mg/kg, intramuscularly, Aveco, Fort Dodge, Iowa) and xylazine (5 mg/kg, intramuscularly, Miles Laboratories, Shawnee, Kans.) and a helmet of dental acrylic was affixed to the calvarium. Twenty four hours later, the rabbits were anesthetized with ethyl carbamate (1.75 g/kg; Aldrich Chemical Co., Milwaukee, Wis.) and pentobarbital (15 mg/kg; Abbott Laboratories, Abbott Park, Ill.) and placed in a stereotaxic frame. A spinal needle was introduced into the cisterna magna and 300 μl of CSF was withdrawn. The animals were challenged intracisternally with 10^8 heat killed, unencapsulated pneumococcus strain R6 introduced in 200 μl of saline (time 0). One hour later, animals were treated with peptides dissolved in 1 ml of saline by intravenous injection into the right marginal ear vein. The concentration of FHA was 0.1 μM and that of the FHA Ia, Factor X II, and scrambled FHA II peptides was 10 μM. For the acetyl-FHA II, acetyl/amide-FHA II, dimer of FHA II and trimer of FHA II peptides, the concentration was 10^-3 μM. The concentration of FHA II is given in the results section. Samples of CSF were withdrawn at hourly intervals after pneumococcal inoculation and leukocyte density was measured using a cell counter (Coulter Electronics Inc., Hialeah, Fla.). CSF samples were centrifuged at 10,000×g for 5 minutes and the supernatant was stored at -70° C. until assayed for protein concentration using the bicinchoninic acid method (BCA Kit, Pierce Chemical Co., Rockford, Ill.) and for lactate concentration (Lactate Detection Kit, Sigma, St. Louis, Mo.). Statistically significant differences between treatments were determined by a one way analysis of variance test.
Loss of barrier function of the cerebral capillary endothelium during inflammation is reflected by an influx of serum proteins into the CSF. […] To examine if the peptides were able to ameliorate these measures of cerebral injury, CSF protein and lactate concentrations were measured hourly in peptide-treated and control animals (Table 10).
Leukocyte migration into the CSF in bacterial meningitis is associated with loss of barrier function of the cerebral capillary endothelium, resulting in influx of serum proteins into the CSF. To determine whether FHA peptides were able to prevent this leukocyte-dependent injury, protein concentrations in the CSF were measured throughout the course of inflammation in peptide-treated and control animals.

endothelial cells = test: Cooperative inhibition of neutrophil adherence by peptide plus antibody; type: cell-based, human; details: for additive reduction of neutrophil adherence: together with IB4 (50 μg/ml)
Description: (§3) Human umbilical vein endothelial cells (HUVEC, first passage, Clonetics, San Diego, Calif.) were subcultured at confluence into Terasaki tissue culture wells. After 24 hours, confluent monolayers were used for adherence assays. Monolayers were stimulated with 10 ng/ml TNF alpha (Boehringer Mannheim, Indianapolis, Ind.) at 37° C. for four hours. 30 μl of human neutrophils (10^6 /ml) were labeled with fluorescein by the method of Lo et al. (1991), J. Exp. Med. 173 1493-1500, and preincubated for 15 minutes at 37° C. with 20 μl of peptides (0.5 mM in HAP) or HAP (phosphate buffered saline containing 0.5 mg/ml human serum albumin, 3 mM glucose, and 0.3 U/ml aprotinin) as a control buffer. For some experiments, endothelial cells were pretreated from 10 minutes with Factor X or antibodies against Factor X receptor (EPR-1; Altieri et al. (1990), J. Immunol. 145, 246-253) 12H1 and 9D4 (obtained from Dr. D. Altieri, Scripps Research Institute, Lajolla, Calif.) and then washed. Neutrophils were allowed to adhere to the monolayer for 15 mins. at 37° C. and unbound cells were removed by submersion of the plate in PBS buffer. The number of adherent neutrophils was counted in a 40× microscope field and expressed as a percentage of adherence in control wells with neutrophils treated with HAP buffer alone. The mAb IB4 against CD18 (50 μg/ml; Merck Inc., Rahway, N.J.) served as a positive control.
The ability of FHA peptides and anti-CD18 or anti-Factor X receptor antibodies to interact cooperatively to inhibit neutrophil adherence to endothelial cells was assessed by measuring neutrophil adherence to endothelial cells in the presence of antibody as well as antibody plus peptide. Anti-CD18 mAb IB4 was added to leukocytes at 10 μg/ml 10 min before the assay. Anti-Factor X receptor mAb 12H1 (10 μl of ascites) or 9D4 (10 μg/ml) were added to the endothelial cell monolayers 10 min before the assay. The peptides were added at 5 μg/ml. The results are shown in Table 8 where the numerical values are in % of control binding.

leukocytes in CSF = test: Rabbit meningitis model: leukocyte migration into CSF; type: in vivo; details: for mean leukocyte concentration in CSF: peptides 10 μM i.v.; for reduction of CSF leukocytosis: peptides 10 μM, FHA 0.1 μM
Description: as §2
The anti-inflammatory effects of the administered peptides were assessed in the rabbit model for meningitis by the procedures described in Example 10. The animals received 1 ml of 1 uM peptide intravenously. In a slight departure from the protocol described in Example 10, samples of blood were drawn from the left marginal ear vein 30 minutes after the administration of the peptides to determine peripheral leukocyte concentrations.

[1] = test system: human umbilical vein endothelial cells; test: Adherence of neutrophils to cultured (TNF-stimulated) endothelial cells; type: cell-based; details: peptides 0.5 mM
Description: as §3, §1

[2] = peptide 5 μg/ml plus 9D4 10 μg/ml
[3] = peptide 5 μg/ml plus 12H1 10 μl of ascites
[4] = peptide 5 μg/ml plus IB4 10 μg/ml

## GLYQAKRFKVG [Factor X I, reference compound]
Factor Xa
  Factor Xa generation (in words): substantial reduction that did not reach statistical significance

## YTVSADAIALA (YTVAIAGYALA) [FHA 1408-1418]
C3bi
  block of binding of 12.1F9 to C3bi: up to 60%

## VTVGRGDPHQG [FHA RGD]
C3bi; peptides 50 μg/ml, normalized to a control value of 100
  Adherence index: 85 ± 9

## GLIQGRSVKVD [FHA Ib]
neutrophils
  % Inhibition of TEM: 7 ± 10%
Factor Xa
  reduction of Factor Xa production: 81%

## ETKEVDG [FHA II]
Blood brain barrier
  protein influx into CSF and lactate generation (in words): significantly reduced protein influx into the CSF and generation of lactate
Endothelial cells; [2]
  % of control binding: 45 ± 9 % of control binding
Endothelial cells; [3]
  % of control binding: 67 ± 13 % of control binding
Endothelial cells; [4]
  % of control binding: 11 ± 6 % of control binding
Endothelial cells; peptide 5 μg/ml, no antibody
  % of control binding: 40 ± 23 % of control binding
Endothelial cells
  additive reduction of neutrophil adherence: > 80±10%
Leukocytes in CSF; 10^-3 μM i.v.
  anti-inflammatory effect (in words): ineffective
Leukocytes in CSF; 7 hours
  mean leukocyte concentration in CSF: 2645±1412 /μl CSF
Leukocytes in CSF; 7 hours, 10^-1 μM
  leukocyte density vs control (in words): statistically significantly different from control
Leukocytes in CSF
  reduction of CSF leukocytosis: > 60%
Factor Xa
  Factor Xa generation (in words): did not interfere with the generation of Factor Xa procoagulant activity

## LGYQAK [FHA Ia]
Blood brain barrier
  protein influx into CSF and lactate generation (in words): no significant reduction
Endothelial cells; [2]
  % of control binding: 63 ± 17 % of control binding
Endothelial cells; [3]
  % of control binding: 64 ± 12 % of control binding
Endothelial cells; [4]
  % of control binding: 20 ± 7 % of control binding
Endothelial cells; peptide 5 μg/ml, no antibody
  % of control binding: 63 ± 12 % of control binding
Endothelial cells
  additive reduction of neutrophil adherence: > 80±10%
Leukocytes in CSF; 7 hours
  mean leukocyte concentration in CSF: 1640±1210 /μl CSF
Leukocytes in CSF
  reduction of CSF leukocytosis: > 60%
[1]
  interference with neutrophil adherence (in words): significantly more active than the Factor X peptide I

## IDRSMKTRG [Factor X III, reference compound]
neutrophils
  % Inhibition of TEM: 5 ± 7%
Factor Xa
  Factor Xa generation (in words): substantial reduction that did not reach statistical significance

## DEETVK [scrambled FHA II, reference compound]
neutrophils
  % Inhibition of TEM: 4 ± 5%
Leukocytes in CSF; 7 hours
  mean leukocyte concentration in CSF: 6431±1380 /μl CSF
[1]
  interference with neutrophil adherence (in words): did not interfere with neutrophil binding

## GYDTKQEDG [Factor X II, reference compound]
Blood brain barrier
  protein influx into CSF and lactate generation (in words): no significant reduction
Leukocytes in CSF; 7 hours
  mean leukocyte concentration in CSF: 1622±521 /μl CSF
Leukocytes in CSF
  reduction of CSF leukocytosis: > 60%
Factor Xa
  reduction of Factor Xa production: > 90%

## YTVAIAGYALA [C3-pep 1187-1197]
C3bi
  block of binding of 12.1F9 to C3bi: up to 60%

## GRTRG [FHA III]
neutrophils
  % Inhibition of TEM: 5 ± 6%
Factor Xa
  reduction of Factor Xa production: 74%
[1]
  interference with neutrophil adherence (in words): less effective than the corresponding Factor X derived peptide
